Values of other authors, collected in PMC7775502, “Molecular Screening Strategy to Identify a Non-invasive Delivery Mechanism for the Treatment of Middle Ear Disorders” (Frontiers in Medicine, 2020).

Columns and labels:
[1] = tested on: intact tympanic membrane (TM); settings: peptide phage, incubation 1 h on the exterior surface of the TM, ref Kurabi et al. ([26])
Excerpt: Table 1 The sequences and ME recovery of the trans-TM, 12-mer backbone peptides (TMT-2 and TMT-3) plus the top 18-mer peptide phages from the 18-mer screen. | column: Mean recovery from ME (PFUs)

[2] = tested on: intact TM of ex vivo ME bulla; settings: review of the authors' earlier work
Description: In order to learn more about the mechanisms of phage transport phenomena, several experiments were designed to evaluate the impact of concentration, temperature, and oxygen levels on transport across the TM. […] Next, we tested the sensitivity of transport to oxygen deprivation and temperature using the ex vivo, intact ME bulla. When ME recovery of phage TMT-3 was assessed at various times after death, transport was observed up to 6 h postmortem, after which it ceased. Wh ...

[3] = tested on: human TM; settings: in vitro two-chamber assay, discarded TM fragments from patients undergoing TM repair; ref [28]
Excerpt: (§1) We first tested trans-TM phage TMT-3 transport across TMs from NTHi-infected MEs of rats as well as from rats with normal MEs.

[4] = tested on: rabbit TM fragments; settings: in vitro two-chamber assay, uninfected MEs; ref [28]
Excerpt: as §1

[5] = tested on: rat TM; settings: in vitro two-chamber assay, ref [28]
Excerpt: as §1

[6] = tested on: guinea pig TM fragments; set-up: method as in PMID 30087425; settings: in vitro two-chamber assay, uninfected MEs; ref [28]

Sequence	Mean recovery from ME (PFUs) [1]	also measured
EGHLFPSADSTKTTHLTL [TMT-3(18)-1, M13 bacteriophage expressing 18-mer trans-TM peptide […] on pIII protein]	90,000 PFUs	
KISVYRSADSTKTTHLTL [TMT-3(18)-2, M13 bacteriophage expressing 18-mer trans-TM peptide […] on pIII protein]	40,000 PFUs	
LANNNLTLSPKMPGGGYW [TMT-2(18)-1, M13 bacteriophage expressing 18-mer trans-TM peptide […] on pIII protein]	120 PFUs	
SADSTKTTHLTL [TMT-3, M13 bacteriophage expressing 12-mer trans-TM backbone peptide […] on pIII protein]	10,800 PFUs	Transport at lowered bulla temperature ([2]; 4°C, transport over 1 h): almost entirely eliminated; Time after death up to which transport was observed ([2]; ME recovery of phage at various times postmortem, transport ceased afterwards): up to 6 h; Transport across human TM [3]: comparable levels; Transport across uninfected rabbit TM fragments compared with other species [4]: similar; Transport across TMs from NTHi-infected MEs versus normal MEs ([5]; 1.5 mm chambers, rat TMs): no difference in transport; Transport across uninfected rat TM fragments compared with other species ([5]; uninfected MEs): similar; Transport across uninfected guinea pig TM fragments compared with other species [6]: similar
SPTIFSTLSPKMPGGGYW [TMT-2(18)-2, M13 bacteriophage expressing 18-mer trans-TM peptide […] on pIII protein]	12,000 PFUs	
TEVTSRSADSTKTTHLTL [TMT-3(18)-3, M13 bacteriophage expressing 18-mer trans-TM peptide […] on pIII protein]	280 PFUs	
TLSPKMPGGGYW [TMT-2, M13 bacteriophage expressing 12-mer trans-TM backbone peptide […] on pIII protein]	5,900 PFUs	
VPQGATTLSPKMPGGGYW [TMT-2(18)-3, M13 bacteriophage expressing 18-mer trans-TM peptide […] on pIII protein]	3,000 PFUs	
